Source: PubChem BioAssay (NCI)
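Step 1: Grow cells in 96-well plates. Step 2: Expose to compound for 48 hours at 5 concentrations. Step 3: Interpolate endpoints linearly; if unreached, use highest concentration. GI50 is the concentration that inhibits growth by half. The concentration for full growth arrest is given as TGI.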

Key:
Assay in all cases: growth of human tumour cells (NCI), 48 h
IGROV1 ovarian = test system: IGROV1 ovarian
COLO 205 colon = test system: COLO 205 colon
MCF7 breast = test system: MCF7 breast
SNB-75 CNS = test system: SNB-75 CNS
NCI-H460 lung = test system: NCI-H460 lung
K-562 leukemia = test system: K-562 leukemia
NCI-H522 lung = test system: NCI-H522 lung
U251 CNS = test system: U251 CNS
NCI-H23 lung = test system: NCI-H23 lung
A498 renal = test system: A498 renal

| Structure (SMILES) | GI50 (IGROV1 ovarian) | TGI (IGROV1 ovarian) | GI50 (COLO 205 colon) | TGI (COLO 205 colon) | GI50 (MCF7 breast) | TGI (MCF7 breast) | GI50 (SNB-75 CNS) | TGI (SNB-75 CNS) | GI50 (NCI-H460 lung) | TGI (NCI-H460 lung) | GI50 (K-562 leukemia) | TGI (K-562 leukemia) | GI50 (NCI-H522 lung) | TGI (NCI-H522 lung) | GI50 (U251 CNS) | TGI (U251 CNS) | GI50 (NCI-H23 lung) | TGI (NCI-H23 lung) | GI50 (A498 renal) | TGI (A498 renal) |
| --- | --- | --- | --- | --- | --- | --- | --- | --- | --- | --- | --- | --- | --- | --- | --- | --- | --- | --- | --- | --- |
| CNCc1cccc2c1OCCOCCOCCNS(=O)(=O)c1ccc(cc1)-c1cnc(N)c(n1)C(=O)N2 | 513 nM | 3890 nM | 1020 nM | 2440 nM | 439 nM | 5110 nM | 353 nM | 5260 nM | 1000 nM | 3250 nM | 1260 nM | 5460 nM | 1310 nM | 3150 nM | 772 nM | 2230 nM | 2220 nM | 7720 nM | 1360 nM | 3790 nM |
| CN(C)c1ccc(/C=N/N=C(\C#N)[S][Sn]([Cl])([c]2ccccc2)[c]2ccccc2)cc1 | 1990 nM | 4630 nM | 1640 nM | 3520 nM | 283 nM | 1350 nM | 1070 nM | 2360 nM | 2180 nM | 4750 nM | 339 nM | 3550 nM | 127 nM | 369 nM | 1780 nM | 3200 nM | 1440 nM | 3210 nM | 1960 nM | 3710 nM |
| C/C(=C\c1csc(C)n1)[C@@H]1C[C@@H]2O[C@]2(C)CCC[C@H](C)[C@H](O)[C@@H](C)C(=O)C(C)(C)[C@@H](O)CC(=O)N1 | – | – | 0.182 nM | 0.438 nM | 0.0795 nM | 0.37 nM | 1.61 nM | 48 nM | 0.109 nM | 0.36 nM | 0.106 nM | 0.33 nM | 0.0757 nM | 0.19 nM | 0.147 nM | 0.391 nM | 0.19 nM | 0.412 nM | 0.104 nM | 0.215 nM |
| O=C(O)c1cn(C2CC2)c2cc(N3CCN(C(=O)N(c4ccccc4)c4nc(-c5ccccc5)cs4)CC3)c(F)cc2c1=O | 393 nM | > 100000 nM | – | – | 358 nM | > 100000 nM | 334 nM | 2800 nM | 296 nM | > 100000 nM | – | – | – | – | 381 nM | > 100000 nM | – | – | 28 nM | 688 nM |
| COc1cc2c(Oc3ccc(-c4cnc(Nc5ccc(F)cc5)n(C)c4=O)cc3F)ccnc2cc1OCCCN1CCOCC1 | 646 nM | 2330 nM | – | – | 783 nM | 2470 nM | 610 nM | 1910 nM | 1510 nM | 3220 nM | – | – | – | – | 1660 nM | 3200 nM | 1150 nM | 2750 nM | 950 nM | 2460 nM |
| CCCCCCCCCCN=C(N)c1ccc(N2CCN(c3ccc(C(N)=NCCCCCCCCCC)cc3)CC2)cc1 | 2830 nM | > 50000 nM | 3930 nM | 15700 nM | 1550 nM | > 50000 nM | 2340 nM | > 50000 nM | 1970 nM | > 50000 nM | 1950 nM | > 50000 nM | 3750 nM | > 50000 nM | 2440 nM | > 50000 nM | 3230 nM | > 50000 nM | – | – |
| N#CC1=C(N)Oc2c(ccc3ccccc23)C1c1cc2ccccc2n2nnnc12 (configuration not stated) | 820 nM | > 100000 nM | 2690 nM | 7320 nM | 471 nM | > 100000 nM | – | – | 496 nM | > 100000 nM | 365 nM | > 100000 nM | 407 nM | 2900 nM | 748 nM | > 100000 nM | 3450 nM | > 100000 nM | 783 nM | > 100000 nM |
| O=C1c2ccccc2-c2c1c1c(O)cccc1n2Cc1ccccc1 | – | – | 47400 nM | > 100000 nM | 6750 nM | 30800 nM | – | – | 10300 nM | 45600 nM | 22800 nM | > 100000 nM | 40000 nM | > 100000 nM | 15200 nM | 67100 nM | 5670 nM | 29700 nM | 6240 nM | 25000 nM |
| CCN1CCN(CC(=O)Nc2nc3ccc(NCc4ccc(Br)cc4)cc3s2)CC1 | – | – | – | – | 2050 nM | 4900 nM | 1590 nM | 3290 nM | – | – | – | – | – | – | 1920 nM | 3790 nM | 3220 nM | > 100000 nM | 1760 nM | 3460 nM |
| COc1ccc(-n2c(=O)c3ccccc3n(Cc3ccc(C(=O)NO)cc3)c2=O)cc1 | – | – | 1750 nM | 4220 nM | 2680 nM | 76400 nM | 1720 nM | 5710 nM | 2580 nM | 12900 nM | 3110 nM | > 100000 nM | 1450 nM | 4070 nM | 1780 nM | 3580 nM | 1780 nM | 4290 nM | 1090 nM | 3250 nM |
| CC(=O)O[C@H]([C@H](OC(C)=O)[C@H](C)OC(C)=O)[C@@H](/C=C/[C@H]1CC=CC(=O)O1)OC(C)=O | – | – | 37100 nM | > 100000 nM | 39000 nM | > 100000 nM | 22200 nM | 61700 nM | 59400 nM | > 100000 nM | > 100000 nM | > 100000 nM | 15600 nM | 36200 nM | > 100000 nM | > 100000 nM | 66600 nM | > 100000 nM | 41400 nM | > 100000 nM |
| O=[N+]([O-])c1ccc(/C=C(/c2ccc([N+](=O)[O-])o2)S(=O)(=O)c2ccccc2)cc1 | – | > 100000 nM | – | > 100000 nM | – | > 100000 nM | – | > 100000 nM | – | > 100000 nM | – | > 100000 nM | – | > 100000 nM | – | > 100000 nM | – | > 100000 nM | – | – |
| O=C(NO)c1ccc(CNc2cccc3nc(C4CC4)n(-c4ccccc4)c(=O)c23)cc1 | 1440 nM | 3010 nM | 2220 nM | 5590 nM | 3350 nM | 18000 nM | 1780 nM | 5930 nM | 1900 nM | 5650 nM | 2890 nM | > 100000 nM | 1470 nM | 3380 nM | 1630 nM | 3230 nM | – | – | 1870 nM | 4030 nM |
| CN(C)CCCC1(c2ccc(F)cc2)OCc2cc(-c3csc4ccccc34)ccc21 (configuration not stated) | 1350 nM | 2960 nM | 1730 nM | 3790 nM | 1670 nM | 3270 nM | 1350 nM | 2800 nM | 1600 nM | 3180 nM | 1720 nM | 3450 nM | 1650 nM | 3480 nM | 1690 nM | 3390 nM | 1550 nM | 3020 nM | – | – |
